This passage reports inhibition and Ki results from patent US20090325964A1, “Piperazine Metabotropic Glutamate Receptor 5 (MGLUR5) Negative Allosteric Modulators For Anxiety/Depression” (Wyeth, priority 2008, published 2009).

The target of the first assay is T1, rat mGluR5 receptor (Rattus norvegicus, UniProt P31424).
T1 construct: expressed in transfected cells; host or cells: HEK-293
T1 sequence (P31424 21-1203): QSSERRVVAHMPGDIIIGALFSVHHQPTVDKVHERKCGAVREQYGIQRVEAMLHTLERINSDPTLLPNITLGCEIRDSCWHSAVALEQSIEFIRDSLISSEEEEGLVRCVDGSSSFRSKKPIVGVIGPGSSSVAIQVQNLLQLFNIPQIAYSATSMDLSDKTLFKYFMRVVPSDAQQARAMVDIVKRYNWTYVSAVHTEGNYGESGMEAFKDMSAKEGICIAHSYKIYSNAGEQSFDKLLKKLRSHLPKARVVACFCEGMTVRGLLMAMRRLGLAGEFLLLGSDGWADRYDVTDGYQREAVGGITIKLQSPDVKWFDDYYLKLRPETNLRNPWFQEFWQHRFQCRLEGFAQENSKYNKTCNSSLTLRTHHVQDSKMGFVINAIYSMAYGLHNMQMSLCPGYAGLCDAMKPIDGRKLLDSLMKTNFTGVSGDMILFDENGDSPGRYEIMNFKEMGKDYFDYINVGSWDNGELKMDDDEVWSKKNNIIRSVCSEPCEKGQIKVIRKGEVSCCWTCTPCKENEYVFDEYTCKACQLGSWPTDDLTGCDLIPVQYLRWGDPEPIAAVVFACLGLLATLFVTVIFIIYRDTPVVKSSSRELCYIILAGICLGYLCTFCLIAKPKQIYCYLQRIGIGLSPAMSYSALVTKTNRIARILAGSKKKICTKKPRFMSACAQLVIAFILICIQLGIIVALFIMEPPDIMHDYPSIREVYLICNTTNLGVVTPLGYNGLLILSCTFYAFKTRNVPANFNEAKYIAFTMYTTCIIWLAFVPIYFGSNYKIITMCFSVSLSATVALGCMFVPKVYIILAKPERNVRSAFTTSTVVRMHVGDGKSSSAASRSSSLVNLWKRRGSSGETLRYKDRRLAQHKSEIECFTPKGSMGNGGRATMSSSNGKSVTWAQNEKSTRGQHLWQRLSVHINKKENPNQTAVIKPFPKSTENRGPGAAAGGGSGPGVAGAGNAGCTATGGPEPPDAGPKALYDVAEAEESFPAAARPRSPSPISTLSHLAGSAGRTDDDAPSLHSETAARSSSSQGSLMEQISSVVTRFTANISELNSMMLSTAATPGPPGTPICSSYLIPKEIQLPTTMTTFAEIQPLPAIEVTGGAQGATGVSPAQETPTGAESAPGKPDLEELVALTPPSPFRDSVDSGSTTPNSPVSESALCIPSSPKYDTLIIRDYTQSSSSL
The assay is described as follows: [3H]-MPEP displacement binding assay, HEK-293 cell membranes expressing rat mGluR5. Conditions: 1 h, single point, @ 10 μm compound; Table 1A; read-out: PCT INHIB (%) @ 10 μm. Here is the method: MGluR5 expressing HEK-293 cells were scraped off a plate, transferred to centrifuge tubes and washed twice by centrifugation (2000 rpm for 10 minutes, at 4° C.) in buffer (50 mM Tris pH 7.5). The resulting pellets were aliquoted and stored at minus 80° C. On the day of assay, the cells were thawed on ice and re-suspended in buffer. The binding assay was performed in a 96 well microtiter plate in a total volume of […]. Non-specific binding was determined in the presence of 10 μM MPEP. The binding reaction included a final radioligand [^3H]-MPEP concentration of 4 nM and 12-25 μg membrane protein per well. Following a 60 minute incubation at room temperature, the reaction was terminated by the addition of ice cold buffer and rapid filtration through a GF/B filter that had been presoaked for 30 minutes in 0.5% PEI. Compounds were initially tested in a single point assay to determine percent inhibition at 10 μM.
Percent inhibition and Ki values were generated by GraphPad Prism and Excel Fit. IC50 values were calculated using GraphPad by fitting to a 1 or 2 site-binding model.
where [L] is the concentration of free radioligand and Kd is the dissociation constant of radioligand for the receptor.
Take `Cc1ccc(C#Cc2cccc(C(=O)N3CCN(c4ccccn4)CC3)c2)cc1` [Compound 1, 1-{3-[(4-methylphenyl)ethynyl]benzoyl}-4-pyridin-2-ylpiperazine]: the inhibition at 10 µM is 55%.

In the case of `O=C(c1cccc(C#Cc2ccc(Cl)cc2)c1)N1CCN(c2ccccn2)CC1` [Compound 3, 1-{3-[(4-chlorophenyl)ethynyl]benzoyl}-4-pyridin-2-ylpiperazine], the inhibition at 10 µM is 45%. On the same count and under the same terms, the value for `Cc1ccccc1C#Cc1cccc(C(=O)N2CCN(c3ccccn3)CC2)c1` [Compound 4, 1-{3-[(2-methylphenyl)ethynyl]benzoyl}-4-pyridin-2-ylpiperazine] was 0%; that for `O=C(c1cccc(C#Cc2ccccc2C(F)(F)F)c1)N1CCN(c2ccccn2)CC1` [Compound 5, 1-pyridin-2-yl-4-(3-{[2-(trifluoromethyl)phenyl]ethynyl}benzoyl)piperazine] was 0%; that for `O=C(c1cccc(C#Cc2cccc(O)c2)c1)N1CCN(c2ccccn2)CC1` [Compound 6, 3-({3-[(4-pyridin-2-ylpiperazin-1-yl)carbonyl]phenyl}ethynyl)phenol] was 75%. On the same count and under the same terms, the value for `Cn1cncc1C#Cc1cccc(C(=O)N2CCN(c3ccccn3)CC2)c1` [Compound 7, 1-{3-[(1-methyl-1H-imidazol-5-yl)ethynyl]benzoyl}-4-pyridin-2-ylpiperazine] was 0%; that for `O=C(c1cccc(C#CC2=CCCCC2)c1)N1CCN(c2ccccn2)CC1` [Compound 8, 1-[3-(cyclohex-1-en-1-ylethynyl)benzoyl]-4-pyridin-2-ylpiperazine] was 78%. Same read-out and setting: the value for `O=C(c1cccc(C#CC2(O)CCCC2)c1)N1CCN(c2ccccn2)CC1` [Compound 9, 1-({3-[(4-pyridin-2-ylpiperazin-1-yl)carbonyl]phenyl}ethynyl)cyclopentanol] was 0%; that for `Nc1cccc(C#Cc2cccc(C(=O)N3CCN(c4ccccn4)CC3)c2)c1` [Compound 11, 3-({3-[(4-pyridin-2-ylpiperazin-1-yl)carbonyl]phenyl}ethynyl)aniline] was 85%. With `O=C(c1cccc(C#CC2(O)CCCCC2)c1)N1CCN(c2ccccn2)CC1` [Compound 12, 1-({3-[(4-pyridin-2-ylpiperazin-1-yl)carbonyl]phenyl}ethynyl)cyclohexanol], the inhibition at 10 µM worked out at 0%. On the same count and under the same terms, as for `O=C(c1cccc(C#CC(O)c2ccccc2)c1)N1CCN(c2ccccn2)CC1` (stereo not drawn) [Compound 13, 1-phenyl-3-{3-[(4-pyridin-2-ylpiperazin-1-yl)carbonyl]phenyl}prop-2-yn-1-ol], the figure is 15%; as for `COc1ccc(C(=O)N2CCN(c3ccccn3)CC2)cc1C#CC1=CCCCC1` [Compound 15, 1-[3-(cyclohex-1-en-1-ylethynyl)-4-methoxybenzoyl]-4-pyridin-2-ylpiperazine], 76%.

Staying with this assay, now noted: [3H]-MPEP displacement, rat mGluR5; read-out: Median Ki.
One may read the Ki as the equilibrium dissociation constant of an inhibitor or competing ligand from its target. As to “1-(2-chlorobenzyl)-4-[4-methoxy-3-(pyridin-2-ylethynyl)benzoyl]piperazin-2-one [Compound 332]”, the inhibition constant Ki worked out at 32 nM.

Regarding “1-(3-chlorobenzyl)-4-[4-methoxy-3-(pyridin-2-ylethynyl)benzoyl]piperazin-2-one [Compound 333]”, the Ki came to 34 nM. The same measure, in the same setting: the value for “1-(3-chloropyridin-2-yl)-4-{4-methoxy-3-[(3-nitrophenyl)ethynyl]benzoyl}piperazine [Compound 345]” was 3210 nM. On the same count and under the same terms, the value for “1-(4-chlorobenzyl)-4-[4-methoxy-3-(pyridin-2-ylethynyl)benzoyl]piperazin-2-one [Compound 334]” was 54 nM. As for “2-{4-[4-methoxy-3-(pyridin-2-ylethynyl)benzoyl]piperazin-1-yl}-1,3-benzothiazole [Compound 256]”, the Ki came to 43 nM.

Staying with this assay, now noted: [3H]-MPEP displacement, rat mGluR5 membranes; read-out: Median Ki.
In the case of “1-(4-methylpyridin-2-yl)-4-{[3-(pyridin-2-ylethynyl)-4-(trifluoromethyl)phenyl]carbonyl}piperazine [Compound 367]”, the Ki was found to be 8 nM.

Staying with this assay, now noted: read-out: Median Ki.
`O=C(c1cccc(C#Cc2cccc(O)c2)c1)N1CCN(c2ccccn2)CC1` [Compound 6, 3-({3-[(4-pyridin-2-ylpiperazin-1-yl)carbonyl]phenyl}ethynyl)phenol]: the Ki was determined as 1120 nM. As for `O=C(c1cccc(C#CC2=CCCCC2)c1)N1CCN(c2ccccn2)CC1` [Compound 8, 1-[3-(cyclohex-1-en-1-ylethynyl)benzoyl]-4-pyridin-2-ylpiperazine], the inhibitory constant (Ki) amounted to 1220 nM. Same read-out and setting: the value for `COc1ccc(C(=O)N2CCN(c3ccccn3)CC2)cc1C#CC1=CCCCC1` [Compound 15, 1-[3-(cyclohex-1-en-1-ylethynyl)-4-methoxybenzoyl]-4-pyridin-2-ylpiperazine] was 236 nM.
